Patent publication US6376497B1, “Antifungal azole derivatives having a fluorinated vinyl group and process for preparing same” (Korea Research Institute of Chemical Technology, priority 1999, dated 2002)
≈ marks a conversion by molar mass, not a printed value. Where two headings read alike, the source gives them in different places.

How the values were obtained:
Assay in all cases: In vitro antifungal activity, microbroth dilution MIC
Assay type in all cases: cell-based
[1] = test system: Aspergillus furnigatus B. 19119; details: Aspergillus
How it was run: (§1)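 Broth microdilution adapted from NCCLS M27, in RPMI-1640 with 0.165 M MOPS, pH 7.0. Yeast or mould inoculum at 2×10^3 CFU/ml was mixed 1:1 with DMSO-derived compound solutions (200 to 0.10 μg/ml before mixing) and incubated at 35 °C for 4 to 48 h. MIC was the concentration showing no growth.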

[2] = test system: Candida albicans A. 10231; details: Candida albicans, 4 to 48 hours
How it was run: as §1

Candida albicans C1-2 = details: Candida albicans, 4 to 48 hours
How it was run: as §1

[3] = test system: Candida albicans IFO. 1385; details: Candida albicans, 4 to 48 hours
How it was run: as §1

Candida krusei K. 11655 = details: Pichia kudriavzevii, 4 to 48 hours
How it was run: as §1

[4] = test system: Candida parapsitosis A. 7330; details: Candida, 4 to 48 hours
How it was run: as §1

[5] = test system: Candida pseudotropicalis K. 11658; details: Kluyveromyces marxianus, 4 to 48 hours
How it was run: as §1

[6] = test system: Candida tropicalis A. 13803; details: Candida tropicalis, 4 to 48 hours
How it was run: as §1

[7] = test system: Cryptococcus neoformans A. 34144; details: Cryptococcus neoformans
How it was run: as §1

[8] = test system: Cryptococcus neoformans B. 42419; details: Cryptococcus neoformans, 4 to 48 hours
How it was run: as §1

[9] = test system: Cryptococcus neoformans IFM. 40092; details: Cryptococcus neoformans
How it was run: as §1

[10] = test system: Torulopsis glabrata B. 16205; details: Nakaseomyces glabratus, 4 to 48 hours
How it was run: as §1

[11] = test system: Trichophyton mentagrophytes A. 9129; details: Trichophyton mentagrophytes
How it was run: as §1

[12] = test system: Trichophyton mentagrophytes B. 32663; details: Trichophyton mentagrophytes
How it was run: as §1

[13] = A furnigatus B. 19119, RPMI-1640, 35° C., 4 to 48 hours, read-out: Minimal inhibitory concentration (MIC)
[14] = B.19119, RPMI-1640, 35° C., 4 to 48 hours, no growth observed, read-out: Minimal inhibitory concentration(MIC), A furnigatus B. 19119
[15] = B.19119, RPMI-1640, 35° C., no growth observed, read-out: Minimal inhibitory concentration (MIC), A furnigatus B. 19119
[16] = A.10231, RPMI-1640, 35° C., no growth observed, read-out: Minimal inhibitory concentration(MIC), C. albicans A. 10231
[17] = C. albicans A. 10231, RPMI-1640, 35° C., read-out: Minimal inhibitory concentration (MIC)
[18] = C12, C. albicans C1-2, RPMI-1640, 35° C., read-out: Minimal inhibitory concentration (MIC)
[19] = C12, RPMI-1640, 35° C., no growth observed, read-out: Minimal inhibitory concentration(MIC), C. albicans C1-2
[20] = C. albicans IFO. 1385, RPMI-1640, 35° C., read-out: Minimal inhibitory concentration (MIC)
[21] = IFO.1385, RPMI-1640, 35° C., no growth observed, read-out: Minimal inhibitory concentration(MIC), C. albicans IFO. 1385
[22] = C. krusei K. 11655, RPMI-1640, 35° C., read-out: Minimal inhibitory concentration (MIC)
[23] = K.11655, RPMI-1640, 35° C., no growth observed, read-out: Minimal inhibitory concentration(MIC), C. krusei K. 11655
[24] = A.7330, RPMI-1640, 35° C., no growth observed, read-out: Minimal inhibitory concentration(MIC), C. parapsitosis A. 7330
[25] = C. parapsitosis A. 7330, RPMI-1640, 35° C., read-out: Minimal inhibitory concentration (MIC)
[26] = C. pseudotropicalis K. 11658, RPMI-1640, 35° C., read-out: Minimal inhibitory concentration (MIC)
[27] = K.11658, RPMI-1640, 35° C., no growth observed, read-out: Minimal inhibitory concentration(MIC), C. pseudotropicalis K. 11658
[28] = A.13803, RPMI-1640, 35° C., no growth observed, read-out: Minimal inhibitory concentration(MIC), C. tropicalis A. 13803
[29] = C. tropicalis A. 13803, RPMI-1640, 35° C., read-out: Minimal inhibitory concentration (MIC)
[30] = A.34144, RPMI-1640, 35° C., 4 to 48 hours, no growth observed, read-out: Minimal inhibitory concentration(MIC), Cry. neoformans A. 34144
[31] = A.34144, RPMI-1640, 35° C., no growth observed, read-out: Minimal inhibitory concentration (MIC), Cry. neoformans A. 34144
[32] = Cry. neoformans A. 34144, RPMI-1640, 35° C., 4 to 48 hours, read-out: Minimal inhibitory concentration (MIC)
[33] = B.42419, RPMI-1640, 35° C., no growth observed, read-out: Minimal inhibitory concentration(MIC), Cry. neoformans B. 42419
[34] = Cry. neoformans B. 42419, RPMI-1640, 35° C., read-out: Minimal inhibitory concentration (MIC)
[35] = Cry. neoformans IFM. 40092, RPMI-1640, 35° C., 4 to 48 hours, read-out: Minimal inhibitory concentration (MIC)
[36] = IFM.40092, RPMI-1640, 35° C., 4 to 48 hours, no growth observed, read-out: Minimal inhibitory concentration(MIC), Cry. neoformans IFM. 40092
[37] = IFM.40092, RPMI-1640, 35° C., no growth observed, read-out: Minimal inhibitory concentration (MIC), Cry. neoformans IFM. 40092
[38] = B.16205, RPMI-1640, 35° C., no growth observed, read-out: Minimal inhibitory concentration(MIC), T. glabrata B. 16205
[39] = T. glabrata B. 16205, RPMI-1640, 35° C., read-out: Minimal inhibitory concentration (MIC)
[40] = A.9129, RPMI-1640, 35° C., 4 to 48 hours, no growth observed, read-out: Minimal inhibitory concentration(MIC), T. mentagrophytes A. 9129
[41] = A.9129, RPMI-1640, 35° C., no growth observed, read-out: Minimal inhibitory concentration (MIC), T. mentagrophytes A. 9129
[42] = T. mentagrophytes A. 9129, RPMI-1640, 35° C., 4 to 48 hours, read-out: Minimal inhibitory concentration (MIC)
[43] = B.32663, RPMI-1640, 35° C., 4 to 48 hours, no growth observed, read-out: Minimal inhibitory concentration(MIC), T. mentagrophytes B. 32663
[44] = B.32663, RPMI-1640, 35° C., no growth observed, read-out: Minimal inhibitory concentration (MIC), T. mentagrophytes B. 32663
[45] = T. mentagrophytes B. 32663, RPMI-1640, 35° C., 4 to 48 hours, read-out: Minimal inhibitory concentration (MIC)

SMILES	MIC [1, 13]	MIC [1, 14]	MIC [1, 15]	MIC [2, 16]	MIC [2, 17]	MIC (Candida albicans C1-2; [18])	MIC (Candida albicans C1-2; [19])	MIC [3, 20]	MIC [3, 21]	MIC (Candida krusei K. 11655; [22])	MIC (Candida krusei K. 11655; [23])	MIC [4, 24]	MIC [4, 25]	MIC [5, 26]	MIC [5, 27]	MIC [6, 28]	MIC [6, 29]	MIC [7, 30]	MIC [7, 31]	MIC [7, 32]	also measured
OC(Cn1cncn1)(Cn1cncn1)c1ccc(F)cc1F [fluconazole, reference compound]	> 100 µg/mL	> 100 µg/mL	> 100 µg/mL	> 100 µg/mL	> 100 µg/mL	> 100 µg/mL	> 100 µg/mL	12.5 µg/mL (≈ 40.8 µM)	12.5 µg/mL (≈ 40.8 µM)	25 µg/mL (≈ 81.6 µM)	25 µg/mL (≈ 81.6 µM)	12.5 µg/mL (≈ 40.8 µM)	12.5 µg/mL (≈ 40.8 µM)	12.5 µg/mL (≈ 40.8 µM)	12.5 µg/mL (≈ 40.8 µM)	> 100 µg/mL	> 100 µg/mL	12.5 µg/mL (≈ 40.8 µM)	12.5 µg/mL (≈ 40.8 µM)	12.5 µg/mL (≈ 40.8 µM)	MIC [8, 33]: 25 µg/mL (≈ 81.6 µM); MIC [8, 34]: 25 µg/mL (≈ 81.6 µM); MIC [9, 35]: 3.13 µg/mL (≈ 10.2 µM); MIC [9, 36]: 3.13 µg/mL (≈ 10.2 µM); MIC [9, 37]: 3.13 µg/mL (≈ 10.2 µM); MIC [10, 38]: 100 µg/mL (≈ 327 µM); MIC [10, 39]: 100 µg/mL (≈ 327 µM); MIC [11, 40]: 50 µg/mL (≈ 163 µM); MIC [11, 41]: 50 µg/mL (≈ 163 µM); MIC [11, 42]: 50 µg/mL (≈ 163 µM); MIC [12, 43]: 12.5 µg/mL (≈ 40.8 µM); MIC [12, 44]: 12.5 µg/mL (≈ 40.8 µM); MIC [12, 45]: 12.5 µg/mL (≈ 40.8 µM)
CCC(C)n1ncn(-c2ccc(N3CCN(c4ccc(OCC5COC(Cn6cncn6)(c6ccc(Cl)cc6Cl)O5)cc4)CC3)cc2)c1=O (stereo not drawn) [itraconazole, reference compound]	≤ 0.1 µg/mL	≤ 0.1 µg/mL	≤ 0.1 µg/mL	> 100 µg/mL	> 100 µg/mL	> 100 µg/mL	> 100 µg/mL	1.56 µg/mL (≈ 2.21 µM)	1.56 µg/mL (≈ 2.21 µM)	0.39 µg/mL (≈ 0.553 µM)	0.39 µg/mL (≈ 0.553 µM)	0.78 µg/mL (≈ 1.11 µM)	0.78 µg/mL (≈ 1.11 µM)	0.39 µg/mL (≈ 0.553 µM)	0.39 µg/mL (≈ 0.553 µM)	> 100 µg/mL	> 100 µg/mL	0.39 µg/mL (≈ 0.553 µM)	0.39 µg/mL (≈ 0.553 µM)	0.39 µg/mL (≈ 0.553 µM)	MIC [8, 33]: 0.39 µg/mL (≈ 0.553 µM); MIC [8, 34]: 0.39 µg/mL (≈ 0.553 µM); MIC [9, 35]: ≤ 0.1 µg/mL; MIC [9, 36]: ≤ 0.1 µg/mL; MIC [9, 37]: ≤ 0.1 µg/mL; MIC [10, 38]: 50 µg/mL (≈ 70.9 µM); MIC [10, 39]: 50 µg/mL (≈ 70.9 µM); MIC [11, 40]: ≤ 0.1 µg/mL; MIC [11, 41]: ≤ 0.1 µg/mL; MIC [11, 42]: ≤ 0.1 µg/mL; MIC [12, 43]: ≤ 0.1 µg/mL; MIC [12, 44]: ≤ 0.1 µg/mL; MIC [12, 45]: ≤ 0.1 µg/mL
